# Data from patent publication US20230255906A1, “Targeting Serpin B9 in Cancer” (The Brigham and Women`s Hospital, Inc., priority 2020, published 2023).
# Tests used:
# MBP-Sb9 = biological target: T1, MBP-Sb9 (Homo sapiens, UniProt P50453); assay: Surface plasmon resonance (SPR) binding; conditions: 25° C., 1:1 Langmuir model
# T1 construct: made in house
# Experimental: Surface plasmon resonance (SPR) measures change in refractive index on a biosensor surface, as analytic mass accumulates via binding to an attached ligand. This allows derivation of affinity (KD) from measured kinetic rates of association (ka) and dissociation (kd). All assays were run at 25° C. on a BiOptix 404pi. An NTA biosensor chip was used in this study to pre-concentrate 3 μM MBP-Sb9 via an N-terminal His-tag. MBP-Sb9 was covalently immobilized with EDC/NHS in 20 mM HEPES pH 8.0, 150 mM NaCl, 0.05% Tween-20, 5 mM β-ME to 10,000 to 15,000 RUs. MBP was similarly immobilized on a separate channel as a negative control. Compounds were injected as 3-fold serial dilutions in duplicate starting at 200 μM. Injections were done at 50 μL/min for 60 seconds, followed by a 120 second dissociation in 20 mM HEPES, pH 8.0, 150 mM NaCl, 0.05% Tween-20, 5 mM j-ME, 1% DMSO. A series of five DMSO standards between 0.5% and 1.5% were included with each run to correct for bulk refractive index. Sensorgrams were analyzed using Scrubber 2 software with a double reference and fit to a 1:1 Langmuir model to determine the interaction parameters KD, ka, and kd.
# MBP = MBP (Escherichia coli, UniProt P0AEX9); assay: SPR negative control channel; assay type: binding
# Experimental: FIG. 4B. Sensorgrams of compounds 3,4-dihydroxybenzoic acid (top), 3-oxo-1-indancarboxylic acid (middle), and the compound of Formula (III) (bottom) show the binding of 3,4-dihydroxybenzoic acid and the compound of Formula (III) to Sb9 (top), but not to MBP (bottom) by Surface Plasmon Resonance (SPR).
# All assays were run at 25° C. on a BiOptix 404pi. An NTA biosensor chip was used in this study to pre-concentrate 3 μM MBP-Sb9 via an N-terminal His-tag. MBP-Sb9 was covalently immobilized with EDC/NHS in 20 mM HEPES pH 8.0, 150 mM NaCl, 0.05% Tween-20, 5 mM β-ME to 10,000 to 15,000 RUs. MBP was similarly immobilized on a separate channel as a negative control.
# B16-Sb9 KO tumors = B16-Sb9 KO tumors in Sb9 KO mice; assay type: in vivo, mouse; conditions: Sb9 KO mice bearing B16-Sb9 KO tumors
# Experimental: FIG. 5N. Tumor growth curve indicates no difference in antitumor effect of the compound of Formula (III) on B16-Sb9 KO tumors in Sb9 KO mice, as compared to the control group. Data are expressed as means±SEM.
# To evaluate the off-target effects of the compound of Formula (III) to Sb9 proteins, the B16-Sb9 KO melanoma cells were treated with various concentrations of the compound of Formula (III). […] Furthermore, the antitumor effects of the compound of Formula (III) on the Sb9 KO mice bearing B16-Sb9 KO tumors, as compared to control group were not observed (FIG. 5N).
# MSC-WT cells = assay: ECM fiber production by mesenchymal stem cells; assay type: cell-based, mouse
# Experimental: Isolation and harvest of murine MSCs from either C57BL/6-WT mice or Sb9 KO mice were performed according to the protocol as described previously (Zhu et al., 2010).
# To investigate the effect of the compound of Formula (III) on the tumor stroma, MSC-WT cells were treated with the compound of Formula (III) for 48 hrs.
# T1 sequence (P50453 whole entry): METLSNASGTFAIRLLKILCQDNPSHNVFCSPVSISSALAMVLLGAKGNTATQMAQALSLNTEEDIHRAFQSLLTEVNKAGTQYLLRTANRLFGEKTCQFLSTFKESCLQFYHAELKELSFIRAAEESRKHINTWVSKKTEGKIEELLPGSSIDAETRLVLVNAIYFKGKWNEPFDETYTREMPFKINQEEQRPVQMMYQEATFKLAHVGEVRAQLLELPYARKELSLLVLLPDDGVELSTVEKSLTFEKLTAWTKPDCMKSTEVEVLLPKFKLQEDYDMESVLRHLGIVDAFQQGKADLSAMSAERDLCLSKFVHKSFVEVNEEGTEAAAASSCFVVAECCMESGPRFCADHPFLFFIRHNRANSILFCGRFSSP
structure (smiles),measurement,setting,value
"O=C(O)c1ccc2ncoc2c1 [Formula (III), 1,3-benzoxazole-6-carboxylic acid]",Kd,MBP-Sb9,273 µM
same,binding to MBP (negative control),MBP,not to MBP
same,antitumor effects vs control group,B16-Sb9 KO tumors,not observed
same,production of fibronectin and collagen I by MSC-WT cells,MSC-WT cells; 48 hrs treatment,reduced the production of fibronectin and collagen I
same,expression of fibronectin and collagen I by MSC-WT cells co-cultured with B16 cells,MSC-WT cells; co-culture with B16-GFP cells,decreased the expression of fibronectin and collagen I
